Source: ChEMBL document CHEMBL3352707, “Antimycobacterial activity of natural products and synthetic agents: pyrrolodiquinolines and vermelhotin as anti-tubercular leads against clinical multidrug resistant isolates of Mycobacterium tuberculosis” (Eur J Med Chem, 2015)
Values after ≈ are worked out from the molar mass of the structure shown.

Tests used:
Type in all cases: functional
[1] = test system: Mycobacterium tuberculosis; assay: Antimycobacterial activity against Ethionamide-resistant Mycobacterium tuberculosis H37Rv ATCC 35830 after 7 days by microplate Alamar blue assay; conditions: H37Rv ATCC 35830, 168 h
[2] = test system: Mycobacterium tuberculosis; assay: Antimycobacterial activity against pyrazinamide-resistant Mycobacterium tuberculosis H37Rv ATCC 35828 after 7 days by microplate Alamar blue assay; conditions: H37Rv ATCC 35828, 168 h
[3] = test system: Mycobacterium tuberculosis; assay: Antimycobacterial activity against isoniazid, rifampin, ethambutol, streptomycin, ofloxacin-resistant Mycobacterium tuberculosis after 7 days by microplate Alamar blue assay; conditions: 168 h
[4] = test system: Mycobacterium tuberculosis; assay: Antimycobacterial activity against isoniazid, rifampin, streptomycin, ofloxacin-resistant Mycobacterium tuberculosis after 7 days by microplate Alamar blue assay; conditions: 168 h
[5] = test system: Mycobacterium tuberculosis; assay: Antimycobacterial activity against isoniazid, rifampin, ethambutol, ofloxacin-resistant Mycobacterium tuberculosis after 7 days by microplate Alamar blue assay; conditions: 168 h
[6] = test system: Mycobacterium tuberculosis; assay: Antimycobacterial activity against isoniazid, rifampin, ethambutol, streptomycin-resistant Mycobacterium tuberculosis after 7 days by microplate Alamar blue assay; conditions: 168 h
[7] = test system: Mycobacterium tuberculosis; assay: Antimycobacterial activity against isoniazid, rifampin, streptomycin-resistant Mycobacterium tuberculosis after 7 days by microplate Alamar blue assay; conditions: 168 h
[8] = test system: Mycobacterium tuberculosis; assay: Antimycobacterial activity against isoniazid, rifampin, ethambutol-resistant Mycobacterium tuberculosis after 7 days by microplate Alamar blue assay; conditions: 168 h
[9] = test system: Mycobacterium tuberculosis; assay: Antimycobacterial activity against isoniazid, rifampin-resistant Mycobacterium tuberculosis after 7 days by microplate Alamar blue assay; conditions: 168 h

Row | SMILES | MIC [1] [µg/mL] | MIC [2] [µg/mL] | MIC [3] [µg/mL] | MIC [4] [µg/mL] | MIC [5] [µg/mL] | MIC [6] [µg/mL] | MIC [7] [µg/mL] | MIC [8] [µg/mL] | MIC [9] [µg/mL]
1 | C/C=C/C1=CC=C/C(=C2\C(=O)CNC2=O)O1 [VERMELHOTIN] | 3.1 (≈ 14.3 µM) | 6.2 (≈ 28.5 µM) |  |  |  |  |  |  | 
2 | C[n+]1cc2c(cn3c4ccccc4ccc23)c2ccccc21.[I-] | 6.2 | 6.2 |  |  |  |  |  |  | 
3 | CN[C@@H]1[C@H](O[C@H]2[C@H](O[C@H]3[C@H](O)[C@@H](O)[C@H](N=C(N)N)[C@@H](O)[C@@H]3N=C(N)N)O[C@@H](C)[C@]2(O)C=O)O[C@@H](CO)[C@H](O)[C@H]1O [STREPTOMYCIN] |  |  | ≥ 8 | ≥ 8 | ≤ 2 | ≥ 8 | ≥ 8 | ≤ 2 | ≤ 2
4 | CN1Cc2c(cn3c2ccc2ccccc23)-c2ccccc21 | 6.2 (≈ 21.8 µM) | 3.1 (≈ 10.9 µM) |  |  |  |  |  |  | 
5 | CC1COc2c(N3CCN(C)CC3)c(F)cc3c(=O)c(C(=O)O)cn1c23 (stereo unspecified) [OFLOXACIN] |  |  | ≥ 4 | ≥ 4 | ≥ 4 | ≤ 2 | ≤ 2 | ≤ 2 | ≤ 2
6 | CO[C@H]1/C=C/O[C@@]2(C)Oc3c(C)c(O)c4c(O)c(c(/C=N/N5CCN(C)CC5)c(O)c4c3C2=O)NC(=O)/C(C)=C\C=C\[C@H](C)[C@H](O)[C@@H](C)[C@@H](O)[C@@H](C)[C@H](OC(C)=O)[C@@H]1C [RIFAMPIN] |  |  | ≥ 2 | ≥ 2 | ≥ 2 | ≥ 2 | ≥ 2 | ≥ 2 | ≥ 2
7 | NNC(=O)c1ccncc1 [ISONIAZID] |  |  | ≥ 2 | ≥ 2 | ≥ 2 | ≥ 2 | ≥ 2 | ≥ 2 | ≥ 2
8 | CC[C@@H](CO)NCCN[C@@H](CC)CO [ETHAMBUTOL] |  |  | ≥ 8 | ≤ 2 | ≥ 8 | ≥ 8 | ≤ 2 | ≥ 8 | ≤ 2
